Data reported in ChEMBL document CHEMBL4706545, “Antiproliferative effect of mitochondria-targeting allobetulin 1,2,3-triazolium salt derivatives and their mechanism of inducing apoptosis of cancer cells” (Eur J Med Chem, 2020).

Columns and labels:
HepG2 = experiment: Cytotoxicity against human HepG2 cells assessed as reduction in cell viability incubated for 48 hrs by MTT assay; format: functional, cell-based; details: HepG2, 48 h
ECa-109 cell line = experiment: Cytotoxicity against human ECa-109 cells assessed as reduction in cell viability incubated for 48 hrs by MTT assay; format: functional, cell-based; details: ECa-109, 48 h
SGC-7901 = experiment: Cytotoxicity against human SGC-7901 cells assessed as reduction in cell viability incubated for 48 hrs by MTT assay; format: functional, cell-based; details: SGC-7901, 48 h
HeLa = experiment: Cytotoxicity against human HeLa cells assessed as reduction in cell viability incubated for 48 hrs by MTT assay; format: functional, cell-based
L02 = experiment: Cytotoxicity against human HL7702 cells assessed as reduction in cell viability incubated for 48 hrs by MTT assay; format: ADME, cell-based; details: L02, 48 h

Row | SMILES | IC50 (HepG2) [µM] | IC50 (ECa-109 cell line) [µM] | IC50 (SGC-7901) [µM] | IC50 (HeLa) [µM] | IC50 (L02) [µM]
1 | CC1(C)CC[C@]23CC[C@]4(C)[C@H](CC[C@@H]5[C@@]6(C)Cc7nnn(Cc8c(F)cccc8Cl)c7C(C)(C)[C@@H]6CC[C@]54C)[C@H]2[C@H]1OC3 | 24.3 | 27 | 26.1 | 23.3 | 19.5
2 | COc1ccccc1CCn1n[n+](C)c2c1C(C)(C)[C@@H]1CC[C@]3(C)[C@H](CC[C@@H]4[C@H]5[C@H]6OC[C@@]5(CCC6(C)C)CC[C@]43C)[C@@]1(C)C2 | 1.55 | 1.67 | 1.24 | 1.67 | 1.4
3 | C[n+]1nn(Cc2ccccc2Cl)c2c1C[C@]1(C)[C@H]3CC[C@@H]4[C@H]5[C@H]6OC[C@@]5(CCC6(C)C)CC[C@@]4(C)[C@]3(C)CC[C@H]1C2(C)C | 3.03 | 1.98 | 2.24 | 2.71 | 1.3
4 | CCCCCCCCn1nnc2c1C(C)(C)[C@@H]1CC[C@]3(C)[C@H](CC[C@@H]4[C@H]5[C@H]6OC[C@@]5(CCC6(C)C)CC[C@]43C)[C@@]1(C)C2 | > 80 | > 80 | > 80 | > 80 | > 80
5 | CCCCCCn1n[n+](C)c2c1C(C)(C)[C@@H]1CC[C@]3(C)[C@H](CC[C@@H]4[C@H]5[C@H]6OC[C@@]5(CCC6(C)C)CC[C@]43C)[C@@]1(C)C2 | 1.93 | 3.08 | 1.65 | 2.45 | 1.33
6 | COc1ccc(Cn2nnc3c2C(C)(C)[C@@H]2CC[C@]4(C)[C@H](CC[C@@H]5[C@H]6[C@H]7OC[C@@]6(CCC7(C)C)CC[C@]54C)[C@@]2(C)C3)cc1 | 13.7 | 17.2 | 16.9 | 12.7 | 11.2
7 | CC1(C)CC[C@]23CC[C@]4(C)[C@H](CC[C@@H]5[C@@]6(C)Cc7nnn(Cc8ccc(C(F)(F)F)cc8)c7C(C)(C)[C@@H]6CC[C@]54C)[C@H]2[C@H]1OC3 | 28.9 | 33.9 | 32.2 | 28.5 | 25.6
8 | COC(Cn1nnc2c1C(C)(C)[C@@H]1CC[C@]3(C)[C@H](CC[C@@H]4[C@H]5[C@H]6OC[C@@]5(CCC6(C)C)CC[C@]43C)[C@@]1(C)C2)OC | > 80 | > 80 | > 80 | > 80 | > 80
9 | CC1(C)CC[C@]23CC[C@]4(C)[C@H](CC[C@@H]5[C@@]6(C)Cc7nnn(CCc8c[nH]c9ccccc89)c7C(C)(C)[C@@H]6CC[C@]54C)[C@H]2[C@H]1OC3 | 14.4 | 18.2 | 19.8 | 22.1 | 10.3
10 | COc1cc(Cn2nnc3c2C(C)(C)[C@@H]2CC[C@]4(C)[C@H](CC[C@@H]5[C@H]6[C@H]7OC[C@@]6(CCC7(C)C)CC[C@]54C)[C@@]2(C)C3)cc(OC)c1OC | 12.1 | 6.24 | 10.7 | 9.07 | 6.65
11 | CCCCn1nnc2c1C(C)(C)[C@@H]1CC[C@]3(C)[C@H](CC[C@@H]4[C@H]5[C@H]6OC[C@@]5(CCC6(C)C)CC[C@]43C)[C@@]1(C)C2 | 10.7 | 10.5 | 6.61 | 6.26 | 7.86
12 | CC1(C)CC[C@]23CC[C@]4(C)[C@H](CC[C@@H]5[C@@]6(C)Cc7nnn(Cc8ccc(Cl)cc8)c7C(C)(C)[C@@H]6CC[C@]54C)[C@H]2[C@H]1OC3 | 66 | 64.2 | 61.4 | 51.3 | 44.9
13 | CCCCCCn1nnc2c1C(C)(C)[C@@H]1CC[C@]3(C)[C@H](CC[C@@H]4[C@H]5[C@H]6OC[C@@]5(CCC6(C)C)CC[C@]43C)[C@@]1(C)C2 | > 80 | 37.4 | 40.9 | > 80 | 51.9
14 | COc1ccccc1Cn1nnc2c1C(C)(C)[C@@H]1CC[C@]3(C)[C@H](CC[C@@H]4[C@H]5[C@H]6OC[C@@]5(CCC6(C)C)CC[C@]43C)[C@@]1(C)C2 | 46.7 | 57.9 | 53 | 41.9 | 38.4
15 | C[n+]1nn(CC(c2ccccc2)c2ccccc2)c2c1C[C@]1(C)[C@H]3CC[C@@H]4[C@H]5[C@H]6OC[C@@]5(CCC6(C)C)CC[C@@]4(C)[C@]3(C)CC[C@H]1C2(C)C | 2.96 | 2.28 | 2.18 | 2.67 | 1.61
16 | COc1cccc(Cn2n[n+](C)c3c2C(C)(C)[C@@H]2CC[C@]4(C)[C@H](CC[C@@H]5[C@H]6[C@H]7OC[C@@]6(CCC7(C)C)CC[C@]54C)[C@@]2(C)C3)c1 | 2.18 | 2.81 | 1.81 | 2.33 | 1.72
17 | CC1(C)CC[C@]23CC[C@]4(C)[C@H](CC[C@@H]5[C@@]6(C)Cc7nnn(Cc8ccc(F)cc8F)c7C(C)(C)[C@@H]6CC[C@]54C)[C@H]2[C@H]1OC3 | 6.56 | 10.9 | 9.02 | 10.2 | 7.47
18 | CCCCn1n[n+](C)c2c1C(C)(C)[C@@H]1CC[C@]3(C)[C@H](CC[C@@H]4[C@H]5[C@H]6OC[C@@]5(CCC6(C)C)CC[C@]43C)[C@@]1(C)C2 | 3.97 | 5.14 | 3.25 | 3.99 | 2.2
19 | CCCCCCCCn1n[n+](C)c2c1C(C)(C)[C@@H]1CC[C@]3(C)[C@H](CC[C@@H]4[C@H]5[C@H]6OC[C@@]5(CCC6(C)C)CC[C@]43C)[C@@]1(C)C2 | 2.01 | 3 | 2.18 | 2.55 | 1.34
20 | CC1(C)CC[C@]23CC[C@]4(C)[C@H](CC[C@@H]5[C@@]6(C)Cc7nnn(Cc8ccccc8Cl)c7C(C)(C)[C@@H]6CC[C@]54C)[C@H]2[C@H]1OC3 | 56.1 | 58.9 | 49.9 | 41.3 | 40.5
21 | COc1cc(Cn2n[n+](C)c3c2C(C)(C)[C@@H]2CC[C@]4(C)[C@H](CC[C@@H]5[C@H]6[C@H]7OC[C@@]6(CCC7(C)C)CC[C@]54C)[C@@]2(C)C3)cc(OC)c1OC | 3.04 | 3.35 | 5.56 | 3.8 | 3.8
22 | C[n+]1nn(Cc2cccc(F)c2)c2c1C[C@]1(C)[C@H]3CC[C@@H]4[C@H]5[C@H]6OC[C@@]5(CCC6(C)C)CC[C@@]4(C)[C@]3(C)CC[C@H]1C2(C)C | 2.24 | 3 | 3.05 | 2.78 | 1.41
23 | C[n+]1nn(Cc2ccc(C(F)(F)F)cc2)c2c1C[C@]1(C)[C@H]3CC[C@@H]4[C@H]5[C@H]6OC[C@@]5(CCC6(C)C)CC[C@@]4(C)[C@]3(C)CC[C@H]1C2(C)C | 2.49 | 3.18 | 2.84 | 3.06 | 2.26
24 | C[n+]1nn(Cc2cccc(Cl)c2)c2c1C[C@]1(C)[C@H]3CC[C@@H]4[C@H]5[C@H]6OC[C@@]5(CCC6(C)C)CC[C@@]4(C)[C@]3(C)CC[C@H]1C2(C)C | 2.67 | 3.01 | 2.41 | 2.07 | 1.89
25 | Cc1ccc(Cn2n[n+](C)c3c2C(C)(C)[C@@H]2CC[C@]4(C)[C@H](CC[C@@H]5[C@H]6[C@H]7OC[C@@]6(CCC7(C)C)CC[C@]54C)[C@@]2(C)C3)cc1 | 2.28 | 2.62 | 2.16 | 2.21 | 1.47
26 | CC1(C)CC[C@]23CC[C@]4(C)[C@H](CC[C@@H]5[C@@]6(C)Cc7nnn(Cc8ccccn8)c7C(C)(C)[C@@H]6CC[C@]54C)[C@H]2[C@H]1OC3 | > 80 | > 80 | > 80 | > 80 | > 80
27 | CC1(C)CC[C@]23CC[C@]4(C)[C@H](CC[C@@H]5[C@@]6(C)Cc7nnn(Cc8ccc(F)cc8)c7C(C)(C)[C@@H]6CC[C@]54C)[C@H]2[C@H]1OC3 | 47.7 | 69 | > 80 | > 80 | 42
28 | C[n+]1nn(CCc2c[nH]c3ccccc23)c2c1C[C@]1(C)[C@H]3CC[C@@H]4[C@H]5[C@H]6OC[C@@]5(CCC6(C)C)CC[C@@]4(C)[C@]3(C)CC[C@H]1C2(C)C | 3.17 | 3.13 | 3.05 | 3.19 | 2.9
29 | CC1(C)CC[C@]23CC[C@]4(C)[C@H](CC[C@@H]5[C@@]6(C)Cc7nnn(CC(c8ccccc8)c8ccccc8)c7C(C)(C)[C@@H]6CC[C@]54C)[C@H]2[C@H]1OC3 | 53.9 | 48.5 | 47.9 | 44.1 | 40.7
30 | CC1(C)CC[C@]23CC[C@]4(C)[C@H](CC[C@@H]5[C@@]6(C)CC[C@H](O)C(C)(C)[C@@H]6CC[C@]54C)[C@H]2[C@H]1OC3 [ALLOBETULIN] | 55.9 | 47.6 | 62.4 | 45.6 | 42.7
